From US12527844B2, “Pharmaceutical formulations” (Novo Nordisk A/S, priority 2020, dated 2026)
Read-outs that look alike come from different tables or passages of the source.

Columns and labels:
[1] = Semaglutide solubility in the pH range 3.5-7.5 (FIG. 2); type: physicochemical
Protocol: FIG. 2 depicts semaglutide solubility in the pH range 3.5-7.5. […] Concentrations below ca. 0.6 mM indicate that no more than the analysed amount of semaglutide can be dissolved when the pH is below about 5.9.

[2] = PK after single s.c. administration via prefilled dual chamber syringe or separate injections; type: in vivo, LYD pigs; conditions: for AUC/Dose [mean ± SD]: single s.c. dose
Protocol: Female cross bred domestic pigs (Danish Landrace, Yorkshire and Duroc—LYD pigs), having a body weight of approximately 80-100 kg, were used for exploring PK profiles.
A full plasma concentration-time profile was obtained from each animal, from pre-dosing to 18 days post dosing.
Plasma was analysed by means of Luminescence Oxygen Channelling Immunoassay (LOCI) and Liquid Chromatography-Mass Spectrometry (LCMS) for semaglutide and cagrilintide, respectively. Non-compartmental pharmacokinetic analysis, using individual plasma concentration-time profiles, was performed.

[3] = dual chamber syringe versus separate injections

Compound: CC[C@H](C)[C@H](NC(=O)[C@H](Cc1ccccc1)NC(=O)[C@H](CCC(=O)O)NC(=O)[C@H](CCCCNC(=O)COCCOCCNC(=O)COCCOCCNC(=O)CC[C@H](NC(=O)CCCCCCCCCCCCCCCCC(=O)O)C(=O)O)NC(=O)[C@H](C)NC(=O)[C@H](C)NC(=O)[C@H](CCC(N)=O)NC(=O)CNC(=O)[C@H](CCC(=O)O)NC(=O)[C@H](CC(C)C)NC(=O)[C@H](Cc1ccc(O)cc1)NC(=O)[C@H](CO)NC(=O)[C@H](CO)NC(=O)[C@@H](NC(=O)[C@H](CC(=O)O)NC(=O)[C@H](CO)NC(=O)[C@@H](NC(=O)[C@H](Cc1ccccc1)NC(=O)[C@@H](NC(=O)CNC(=O)[C@H](CCC(=O)O)NC(=O)C(C)(C)NC(=O)[C@@H](N)Cc1cnc[nH]1)[C@@H](C)O)[C@@H](C)O)C(C)C)C(=O)N[C@@H](C)C(=O)N[C@@H](Cc1c[nH]c2ccccc12)C(=O)N[C@@H](CC(C)C)C(=O)N[C@H](C(=O)N[C@@H](CCCNC(=N)N)C(=O)NCC(=O)N[C@@H](CCCNC(=N)N)C(=O)NCC(=O)O)C(C)C [semaglutide, N^6,26-{18-[N-(17-carboxyheptadecanoyl)-L-γ-glutamyl]-10-oxo-3,6,12,15-tetraoxa-9,18-diazaoctadecanoyl}-[8-(2-amino-2-propanoic acid),34-L-arginine]human glucagon-like peptide 1(7-37)]
- solubility ([1]; pH above about 5.9, read-out: maximum solubility): > 600 µM
- solubility ([1]; pH below about 5.9, read-out: solubility (dissolved concentration)): < 600 µM
- AUC/Dose % increase (Co-dosing vs. dual-chamber syringe) [2, 3]: ~13%
- Cmax % increase (Co-dosing vs. dual-chamber syringe) [2, 3]: ~22%
- t½ % increase (Co-dosing vs. dual-chamber syringe) [2, 3]: ~0%
- AUC/Dose [mean ± SD] ([2]; group Dual chamber syringe 2.4/2.4): 1560 ± 229 kg·h/L
- AUC/Dose [mean ± SD] ([2]; group Mono (separate injections per title)): 1380 ± 78.1 kg·h/L
